Target: T1, His6-NALP1 wild-type (Homo sapiens, UniProt Q9C000)
T1 construct: made in house; host or cells: COS-7 cells, transient transfection, Ni-NTA purification
T1 sequence (Q9C000 1-1473): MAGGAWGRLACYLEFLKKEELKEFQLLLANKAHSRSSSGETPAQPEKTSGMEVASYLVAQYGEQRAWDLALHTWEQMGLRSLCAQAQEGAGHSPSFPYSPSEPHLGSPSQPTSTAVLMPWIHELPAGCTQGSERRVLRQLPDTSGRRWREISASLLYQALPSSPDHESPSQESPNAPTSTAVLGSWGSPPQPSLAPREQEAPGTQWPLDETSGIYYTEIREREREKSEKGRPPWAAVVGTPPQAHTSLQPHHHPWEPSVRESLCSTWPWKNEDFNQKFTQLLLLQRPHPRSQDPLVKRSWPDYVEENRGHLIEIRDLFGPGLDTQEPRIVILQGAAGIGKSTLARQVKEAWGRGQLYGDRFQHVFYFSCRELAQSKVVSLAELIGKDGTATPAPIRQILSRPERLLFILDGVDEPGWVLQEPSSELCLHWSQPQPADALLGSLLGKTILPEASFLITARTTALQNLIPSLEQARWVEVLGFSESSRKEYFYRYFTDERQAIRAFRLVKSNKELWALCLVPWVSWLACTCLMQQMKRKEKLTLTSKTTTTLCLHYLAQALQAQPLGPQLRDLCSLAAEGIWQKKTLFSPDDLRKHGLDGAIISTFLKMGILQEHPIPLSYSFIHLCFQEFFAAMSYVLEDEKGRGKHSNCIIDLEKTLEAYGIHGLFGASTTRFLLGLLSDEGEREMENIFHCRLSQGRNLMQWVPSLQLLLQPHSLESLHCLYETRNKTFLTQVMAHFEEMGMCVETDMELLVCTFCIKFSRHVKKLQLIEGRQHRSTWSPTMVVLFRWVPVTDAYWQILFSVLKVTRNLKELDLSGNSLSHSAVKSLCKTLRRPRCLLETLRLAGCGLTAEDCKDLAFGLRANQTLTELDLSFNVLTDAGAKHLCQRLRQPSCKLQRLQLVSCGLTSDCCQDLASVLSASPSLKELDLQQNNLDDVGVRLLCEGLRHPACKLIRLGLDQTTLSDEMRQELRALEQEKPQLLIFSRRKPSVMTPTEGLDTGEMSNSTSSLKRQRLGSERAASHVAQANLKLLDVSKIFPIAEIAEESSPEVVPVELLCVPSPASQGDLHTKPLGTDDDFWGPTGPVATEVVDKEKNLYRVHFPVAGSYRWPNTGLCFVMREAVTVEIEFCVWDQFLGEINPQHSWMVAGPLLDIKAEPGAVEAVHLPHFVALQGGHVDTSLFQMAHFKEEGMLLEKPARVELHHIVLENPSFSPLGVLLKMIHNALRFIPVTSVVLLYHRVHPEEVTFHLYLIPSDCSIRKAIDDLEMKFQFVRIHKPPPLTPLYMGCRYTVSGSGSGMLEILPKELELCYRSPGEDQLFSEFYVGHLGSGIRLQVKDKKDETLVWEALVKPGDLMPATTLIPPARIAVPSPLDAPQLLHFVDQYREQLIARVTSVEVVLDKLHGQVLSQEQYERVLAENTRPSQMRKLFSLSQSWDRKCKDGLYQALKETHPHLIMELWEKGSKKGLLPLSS
Assay: Ni flashplate dATPα35S binding assay, wild-type His6-NALP1
Conditions: 8 nM dATPα35S displaced by non-radiolabeled dATP
Description: Production of purified NALP-Flashplate binding assay. NALP1 protein for in vitro binding assays was purified from transiently transfected cells. COS-7 cells were plated in DMEM, 10% fetal calf serum with amino acid supplements and antibiotics and allowed to grow to approximately 50% confluency. Large-scale preparations were performed in Cell Factories (NUNC) with approximately 600 μg plasmid DNA. Polyfect transfection reagent (Qiagen) was used as described by the manufacturer. After 24 hours, cells were collected by trypsinization, washed with fresh medium and then with PBS. Cells were lysed by resuspension in 10× cell volume of lysis buffer (140 mM NaCl, 0.1% Triton-X100, 0.1 mM DTT, 20 mM HEPES at pH 7.4 and protease inhibitor cocktail (Roche Diagnostics BmbH)). Lysates were centrifuged at approximately 7400×g for 30 minutes and supernatants were supplemented with glycerol to a final concentration of 10% and stored at −70° C. until purification. Protein concentrations were measured and samples normalized. Extracts were mixed with 1 ml Ni-NTA agarose equilibrated with the same buffer for 1 hour at 4° C. in the tube. Disposable columns were filled with the resin and flow-through collected. […] Reactions were stopped by aspirating solutions and washed once with Buffer B. Plates were counted in a Top Count scintillation counter (Packard).

specific binding of dATP to wild-type NALP1: specific binding
SMILES: Nc1ncnc2c1ncn2[C@H]1C[C@H](O)[C@@H](COP(=O)(O)OP(=O)(O)OP(=O)(O)O)O1 [dATP]

— patent US20040248775A1, “Methods for screening inhibitors of apoptosis” (Wyeth, priority 2003, published 2004)
